Assay results: patent US11214803B2, “Modulators of YAP1 expression” (Ionis Pharmaceuticals, Inc., priority 2019, dated 2022)
Strand notation (5' to 3'): a small letter for the sugar, then the base; units joined by * are phosphorothioate-linked, units joined directly phosphodiester-linked; [ ] holds rarer units or linkages, { } end groups; capitals alone tell only the bases. k = constrained ethyl (cEt); [5mC] = 5-methylcytosine; d = 2'-deoxy (DNA)

Assays:
[1] = Tolerability in CD-1 mice, body and organ weights (Example 19); assay type: in vivo; settings: male CD-1 mice, 50 mg/kg s.c. twice a week for four weeks (8 treatments), end of study (day 26)
Procedure: Groups of four male CD-1 mice at 4-6 weeks of age (obtained from Charles River) were injected subcutaneously twice a week for four weeks (for a total of 8 treatments) with 50 mg/kg of modified oligonucleotides. One group of male CD-1 mice was injected with PBS. Mice were euthanized on day 26 post start of treatment (24 hrs following the final administration).
Body weights of CD-1 mice were measured at the end of the study, and the average body weight for each group is presented in the table below. Modified oligonucleotides that caused any changes in organ weights outside the expected range for modified oligonucleotides were excluded from further studies.

Yap1 mRNA [2] = test: Yap1 mRNA in Detroit-562 cells, RNA analysis (Example 38); assay type: cell-based, human; settings: free uptake, approximately 48 hours
Procedure: (§1) Modified oligonucleotides described in the studies above were tested at various doses in pharynx carcinoma cell line Detroit-562. A control oligonucleotide 792169, described herein above, was also tested.
(§2) Cultured Detroit-562 cells at a density of 5000 cells per well were treated using free uptake with modified oligonucleotides diluted to concentrations described in the tables below. After approximately 48 hours, Yap1 mRNA levels were measured as previously described using the Human Yap1 primer-probe set RTS4814. Yap1 mRNA levels were normalized to actin-beta content, as measured by primer probe set RTS5002. Results are presented in the tables below as percent control of the amount of Yap1 mRNA relative to untreated control cells (% UTC).

SCC-25 cells = test: Cell proliferation assay in SCC-25 cells, CellTiter-Glo (Example 42); assay type: cell-based, human; settings: free uptake, approximately 144 hours
Procedure: Modified oligonucleotides described in the studies above were tested at various doses in tongue squamous cell carcinoma cell line SCC-25. A control oligonucleotide 792169, described herein above, was also tested.
(§3) Cultured SCC-25 cells at a density of 1000 cells/well were treated using free uptake with modified oligonucleotides diluted to concentrations described in the tables below. After approximately 144 hours, cell proliferation was measured using the luminescent cell viability CellTiter-Glo® 2.0 Assay (Promega). Results are presented in the tables below as percent control of the amount of luminescence in samples treated with modified oligonucleotides relative to untreated control cells (% UTC).

Yap1 mRNA [3] = test: Yap1 mRNA in SNU-899 cells, RNA analysis (Example 43); assay type: cell-based, human; settings: free uptake, approximately 48 hours
Procedure: Modified oligonucleotides described in the studies above were tested at various doses in laryngeal squamous cell carcinoma cell line SNU-899. A control oligonucleotide 792169, described herein above, was also tested.
as §2, with “SNU-899” for “Detroit-562”

Yap1 mRNA [4] = test: Yap1 mRNA in SCC-15 cells, RNA analysis (Example 41); assay type: cell-based, human; settings: free uptake, approximately 48 hours
Procedure: Modified oligonucleotides described in the studies above were tested at various doses in tongue squamous cell carcinoma cell line SCC-15. A control oligonucleotide 792169, described herein above, was also tested.
as §2, with “SCC-15” for “Detroit-562”

Detroit-562 cells = test: Cell proliferation assay in Detroit-562 cells, CellTiter-Glo (Example 38); assay type: cell-based, human; settings: free uptake, approximately 144 hours
Procedure: as §1
as §3, with “Detroit-562” for “SCC-25”

Yap1 mRNA [5] = test: Yap1 mRNA in NCI H747 cells, RNA analysis (Example 31); assay type: cell-based, human; settings: free uptake, approximately 48 hours
Procedure: Modified oligonucleotides described in the studies above were tested at various doses in colorectal adenocarcinoma cell line NCI H747. A control oligonucleotide 792169 was also tested.
as §2, with “NCI H747” for “Detroit-562”, “10,000” for “5000”

SCC-9 cells = test: Cell proliferation assay in SCC-9 cells, CellTiter-Glo (Example 40); assay type: cell-based, human; settings: free uptake, approximately 144 hours
Procedure: Modified oligonucleotides described in the studies above were tested at various doses in tongue squamous cell carcinoma cell line SCC-9. A control oligonucleotide 792169, described herein above, was also tested.
as §3, with “SCC-9” for “SCC-25”

Row | Substance | Kidney weight [1] [g] | Liver weight [1] [g] | Spleen weight [1] [g] | body weight [1] [g] | human Yap1 mRNA expression (Yap1 mRNA [2]; 0.04 μM) [% UTC] | human Yap1 mRNA expression (Yap1 mRNA [2]; 0.2 μM) [% UTC] | human Yap1 mRNA expression (Yap1 mRNA [2]; 1 μM) [% UTC] | human Yap1 mRNA expression (Yap1 mRNA [2]; 5 μM) [% UTC] | Antiproliferative effect (cell proliferation, luminescence) (SCC-25 cells; 0.08 μM) [% UTC] | Antiproliferative effect (cell proliferation, luminescence) (SCC-25 cells; 0.4 μM) [% UTC] | Antiproliferative effect (cell proliferation, luminescence) (SCC-25 cells; 2 μM) [% UTC] | Antiproliferative effect (cell proliferation, luminescence) (SCC-25 cells; 10 μM) [% UTC] | human Yap1 mRNA expression (Yap1 mRNA [3]; 0.04 μM) [% UTC] | human Yap1 mRNA expression (Yap1 mRNA [3]; 0.2 μM) [% UTC] | human Yap1 mRNA expression (Yap1 mRNA [3]; 1 μM) [% UTC] | human Yap1 mRNA expression (Yap1 mRNA [3]; 5 μM) [% UTC] | human Yap1 mRNA expression (Yap1 mRNA [4]; 0.04 μM) [% UTC] | human Yap1 mRNA expression (Yap1 mRNA [4]; 0.2 μM) [% UTC] | human Yap1 mRNA expression (Yap1 mRNA [4]; 1 μM) [% UTC] | human Yap1 mRNA expression (Yap1 mRNA [4]; 5 μM) [% UTC] | other results
1 | 1198439 (AGTGTATGTCAGAAGA; sugar, 5-methylcytosine, phosphorothioate modifications, further chemistry not given here) [compound 1198439] | 0.51 | 2.03 | 0.25 | 36 | – | – | – | – | – | – | – | – | – | – | – | – | – | – | – | – | –
2 | 715487 (kA*kT*kT*dA*d[5mC]*dT*dT*d[5mC]*dA*dT*dA*dG*d[5mC]*kT*kT*kA) [compound 715487] | – | – | – | – | 77 | 29 | 10 | 5 | 82 | 48 | 25 | 15 | 62 | 26 | 9 | 4 | 69 | 33 | 12 | 5 | Antiproliferative effect (cell proliferation, luminescence) (Detroit-562 cells; 0.04 μM): 92 % UTC; Antiproliferative effect (cell proliferation, luminescence) (Detroit-562 cells; 0.2 μM): 84 % UTC; Antiproliferative effect (cell proliferation, luminescence) (Detroit-562 cells; 1 μM): 71 % UTC; Antiproliferative effect (cell proliferation, luminescence) (Detroit-562 cells; 5 μM): 52 % UTC; human Yap1 mRNA expression (Yap1 mRNA [5]; 0.04 μM): 83 % UTC; human Yap1 mRNA expression (Yap1 mRNA [5]; 0.2 μM): 70 % UTC; human Yap1 mRNA expression (Yap1 mRNA [5]; 1 μM): 49 % UTC; human Yap1 mRNA expression (Yap1 mRNA [5]; 5 μM): 30 % UTC; Antiproliferative effect (cell proliferation, luminescence) (SCC-9 cells; 0.04 μM): 97 % UTC; Antiproliferative effect (cell proliferation, luminescence) (SCC-9 cells; 0.2 μM): 73 % UTC; Antiproliferative effect (cell proliferation, luminescence) (SCC-9 cells; 1 μM): 51 % UTC; Antiproliferative effect (cell proliferation, luminescence) (SCC-9 cells; 5 μM): 34 % UTC
3 | 1198872 (TGTATGTCAGAAGAGT; chemically modified gapmer, further chemistry not given here) [compound 1198872] | 0.40 | 1.84 | 0.16 | 34 | – | – | – | – | – | – | – | – | – | – | – | – | – | – | – | – | –
4 | 1198440 (AAGTGTATGTCAGAAG; cEt, 2'-MOE, 5-methylcytosine, phosphorothioate modifications, further chemistry not given here) [compound 1198440] | 0.46 | 1.97 | 0.18 | 35 | 32 | 8 | 3 | 2 | 56 | 27 | 20 | 16 | 35 | 12 | 3 | 2 | 39 | 10 | 4 | 2 | Antiproliferative effect (cell proliferation, luminescence) (Detroit-562 cells; 0.04 μM): 84 % UTC; Antiproliferative effect (cell proliferation, luminescence) (Detroit-562 cells; 0.2 μM): 67 % UTC; Antiproliferative effect (cell proliferation, luminescence) (Detroit-562 cells; 1 μM): 59 % UTC; Antiproliferative effect (cell proliferation, luminescence) (Detroit-562 cells; 5 μM): 45 % UTC; human Yap1 mRNA expression (Yap1 mRNA [5]; 0.04 μM): 73 % UTC; human Yap1 mRNA expression (Yap1 mRNA [5]; 0.2 μM): 53 % UTC; human Yap1 mRNA expression (Yap1 mRNA [5]; 1 μM): 21 % UTC; human Yap1 mRNA expression (Yap1 mRNA [5]; 5 μM): 9 % UTC; Antiproliferative effect (cell proliferation, luminescence) (SCC-9 cells; 0.04 μM): 88 % UTC; Antiproliferative effect (cell proliferation, luminescence) (SCC-9 cells; 0.2 μM): 46 % UTC; Antiproliferative effect (cell proliferation, luminescence) (SCC-9 cells; 1 μM): 35 % UTC; Antiproliferative effect (cell proliferation, luminescence) (SCC-9 cells; 5 μM): 31 % UTC
5 | CGCCGATAAGGTACAC (cEt gapmer, phosphorothioate backbone, further chemistry not given here) [ION 792169, reference compound] | – | – | – | – | 102 | 102 | 94 | 99 | 97 | 101 | 96 | 92 | 106 | 106 | 111 | 102 | 91 | 100 | 102 | 105 | Antiproliferative effect (cell proliferation, luminescence) (Detroit-562 cells; 0.04 μM): 99 % UTC; Antiproliferative effect (cell proliferation, luminescence) (Detroit-562 cells; 0.2 μM): 106 % UTC; Antiproliferative effect (cell proliferation, luminescence) (Detroit-562 cells; 1 μM): 100 % UTC; Antiproliferative effect (cell proliferation, luminescence) (Detroit-562 cells; 5 μM): 79 % UTC; human Yap1 mRNA expression (Yap1 mRNA [5]; 0.04 μM): 94 % UTC; human Yap1 mRNA expression (Yap1 mRNA [5]; 0.2 μM): 83 % UTC; human Yap1 mRNA expression (Yap1 mRNA [5]; 1 μM): 87 % UTC; human Yap1 mRNA expression (Yap1 mRNA [5]; 5 μM): 100 % UTC; Antiproliferative effect (cell proliferation, luminescence) (SCC-9 cells; 0.04 μM): 104 % UTC; Antiproliferative effect (cell proliferation, luminescence) (SCC-9 cells; 0.2 μM): 111 % UTC; Antiproliferative effect (cell proliferation, luminescence) (SCC-9 cells; 1 μM): 102 % UTC; Antiproliferative effect (cell proliferation, luminescence) (SCC-9 cells; 5 μM): 94 % UTC
